Measurements taken from patent publication US10556898B2, “Indazolyl-1,2,4-thiadiazolamines and related compounds for inhibition of Rho-associated protein kinase and the treatment of disease” (Lycera Corporation, priority 2016, dated 2020).
Read-outs that look alike come from different tables or passages of the source.

What was measured:
[1] = target: T1, GST-tagged human ROCK1 catalytic domain 1-477 (Homo sapiens, UniProt Q13464); test: Isolated Enzyme Assay, ROCK1 (LANCE Ultra ULight-CREBtide FRET); assay type: biochemical; conditions: 30 μM highest concentration tested, read-out: Results from Isolated Enzyme Assay IC50 (μM) ROCK1
T1 construct: human ROCK1 catalytic domain 1-477 from Carna Biosciences (cat #01-109); purchased Carna Biosciences 01-109; host or cells: baculovirus expression system
Summary of the method: (§1)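 Baculovirus-expressed constitutively active ROCK1 or ROCK2 (2 nM) incubated 90 min at room temperature with 50 nM ULight-CREBtide and compound (0.5% DMSO) in Tris pH 7.5, MgCl2, EGTA, Tween-20, DTT. EDTA-stopped; phospho-substrate detected by Eu-anti-phospho-CREB TR-FRET after 60 min; IC50 by non-linear regression.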

[2] = target: T2, GST-tagged human ROCK2 catalytic domain 1-553 (Homo sapiens, UniProt O75116); test: Isolated Enzyme Assay, ROCK2 (LANCE Ultra ULight-CREBtide FRET); assay type: biochemical; conditions: 30 μM highest concentration tested, read-out: Results from Isolated Enzyme Assay IC50 (μM) ROCK2
T2 construct: GST-tagged human ROCK2 catalytic domain 1-553 from Carna Biosciences (Cat #01-110); purchased Carna Biosciences 01-110; host or cells: baculovirus expression system
Summary of the method: as §1

ROCK1 = target: T3, ROCK1 (Homo sapiens, UniProt Q13464); test: Cell-Based Assay, ROCK1 (HAP1 knockout cells, phospho-MYPT1 Thr853 ELISA); conditions: read-out: Results from Cell-Based Assay IC50 (μM) ROCK1
T3 construct: endogenous in cells; host or cells: HAP1 knockout cells
Protocol: (§2) Part II—Procedure for Determining ROCK Inhibition Ability of Test Compounds Using a Cell-Base Assay
(§3) The Cell-Based Assay for determining ROCK inhibition ability of test compounds utilized a genetically modified HAP1 cell line engineered to eliminate expression of either ROCK1 or ROCK2. In the procedure, HAP1 knockout cells are grown in Iscove's Modified Dulbecco's Medium that is additionally supplemented with 10% fetal bovine and 1x antibiotic-antimycotic mixture. Cells are plated in 96 well tissue culture plates at 1×10^5 cells/well (100 μL, of cells at 1×10^6/mL). Test compounds are solubilized in DMSO and diluted into the same media used to grow the cells. A 100 μL, aliquot of each compound dilution in media is added to each well containing the HAP1 cells and incubated at 37° C. for 30 minutes. Following compound incubation, the cells are pelleted by centrifugation at 1800 rpm for 5 minutes at 4° C. Media is removed from the cell pellet and the cells lysed and de-salted. An 80 μL, aliquot of each cell lysate is added to a single well of a 96-well high binding ELISA plate which has been pre-coated with a MYPT1 capture antibody and incubated at 4° C. overnight. The following day the ELISA plate is washed 4× with 0.05% Tween-20 in PBS. After washing, an anti-phospho-MYPT1 (Thr853) antibody is added and allowed to bind for 1 hour at room temperature. The wash step is repeated, and then an anti-rabbit HRP detection antibody is added and allowed to incubate at room temperature for 1 hour. The wash step is then repeated and 100 μL/well 1-Step™ Ultra TMB substrate is added to the ELISA plate and allowed to develop for approximately 5 minutes. The reaction is stopped by addition of H2SO4. Absorbance is read at 450 OD. Data is analyzed using GraphPad Prism software to calculate the 50% inhibitory concentration of test compound (IC50).

ROCK2 = target: T4, ROCK2 (Homo sapiens, UniProt O75116); test: Cell-Based Assay, ROCK2 (HAP1 knockout cells, phospho-MYPT1 Thr853 ELISA); conditions: read-out: Results from Cell-Based Assay IC50 (μM) ROCK2
T4 construct: endogenous in cells; host or cells: HAP1 knockout cells
Protocol: as §2, §3

[3] = porcine model of IL-1 beta-induced coronary stenosis; cited from earlier work
[4] = rat stroke model; cited from earlier work
[5] = phospho-MYPT1, 30 μM highest concentration tested

T3 sequence (Q13464 whole entry): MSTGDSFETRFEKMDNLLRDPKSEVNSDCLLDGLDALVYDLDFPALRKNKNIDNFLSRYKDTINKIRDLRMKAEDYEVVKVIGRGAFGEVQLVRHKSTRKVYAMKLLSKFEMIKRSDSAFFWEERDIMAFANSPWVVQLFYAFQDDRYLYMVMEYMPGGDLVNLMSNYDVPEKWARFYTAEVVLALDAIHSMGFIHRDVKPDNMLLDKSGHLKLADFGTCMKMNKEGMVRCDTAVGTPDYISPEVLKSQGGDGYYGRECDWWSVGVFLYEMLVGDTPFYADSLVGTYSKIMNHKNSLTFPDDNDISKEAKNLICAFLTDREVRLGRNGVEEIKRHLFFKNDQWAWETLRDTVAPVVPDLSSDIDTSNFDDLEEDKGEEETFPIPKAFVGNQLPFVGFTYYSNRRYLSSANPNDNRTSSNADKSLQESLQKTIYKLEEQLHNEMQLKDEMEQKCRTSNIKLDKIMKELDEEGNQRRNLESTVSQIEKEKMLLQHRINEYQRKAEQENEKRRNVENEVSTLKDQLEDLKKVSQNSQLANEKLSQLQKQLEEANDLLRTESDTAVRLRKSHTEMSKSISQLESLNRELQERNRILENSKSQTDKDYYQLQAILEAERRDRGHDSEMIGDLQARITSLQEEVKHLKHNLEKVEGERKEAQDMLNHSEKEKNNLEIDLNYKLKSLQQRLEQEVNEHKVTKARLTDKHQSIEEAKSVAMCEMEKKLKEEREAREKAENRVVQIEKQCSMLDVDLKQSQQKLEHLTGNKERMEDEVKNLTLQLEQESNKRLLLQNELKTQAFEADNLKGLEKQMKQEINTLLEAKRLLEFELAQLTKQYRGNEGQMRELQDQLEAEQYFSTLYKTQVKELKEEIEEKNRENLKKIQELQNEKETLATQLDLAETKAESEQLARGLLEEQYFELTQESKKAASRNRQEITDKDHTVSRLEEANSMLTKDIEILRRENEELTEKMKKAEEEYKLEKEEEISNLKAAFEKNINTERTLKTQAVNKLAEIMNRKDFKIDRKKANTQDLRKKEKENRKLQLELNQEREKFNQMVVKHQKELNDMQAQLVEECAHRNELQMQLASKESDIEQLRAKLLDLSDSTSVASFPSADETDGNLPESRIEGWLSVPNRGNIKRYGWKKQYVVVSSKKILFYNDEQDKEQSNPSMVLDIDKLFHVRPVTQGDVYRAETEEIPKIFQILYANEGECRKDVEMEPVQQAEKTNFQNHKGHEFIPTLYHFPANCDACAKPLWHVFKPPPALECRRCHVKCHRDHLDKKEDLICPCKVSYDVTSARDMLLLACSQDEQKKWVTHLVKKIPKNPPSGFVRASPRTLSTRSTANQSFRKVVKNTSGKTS
T1 sequence (Q13464 1-477): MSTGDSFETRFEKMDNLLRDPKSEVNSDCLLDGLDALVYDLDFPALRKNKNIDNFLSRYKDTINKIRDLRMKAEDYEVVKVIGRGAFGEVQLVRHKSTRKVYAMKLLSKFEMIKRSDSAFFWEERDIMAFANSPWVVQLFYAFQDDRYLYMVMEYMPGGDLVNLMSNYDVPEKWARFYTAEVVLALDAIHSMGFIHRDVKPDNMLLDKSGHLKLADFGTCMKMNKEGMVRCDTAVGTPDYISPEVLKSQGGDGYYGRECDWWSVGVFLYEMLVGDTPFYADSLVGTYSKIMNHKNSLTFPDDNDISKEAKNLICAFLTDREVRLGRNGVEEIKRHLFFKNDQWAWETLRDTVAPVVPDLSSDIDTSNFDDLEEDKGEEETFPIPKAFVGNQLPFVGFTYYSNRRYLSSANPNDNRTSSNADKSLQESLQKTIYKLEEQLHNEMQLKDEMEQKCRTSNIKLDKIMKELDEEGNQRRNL
T4 sequence (O75116 whole entry): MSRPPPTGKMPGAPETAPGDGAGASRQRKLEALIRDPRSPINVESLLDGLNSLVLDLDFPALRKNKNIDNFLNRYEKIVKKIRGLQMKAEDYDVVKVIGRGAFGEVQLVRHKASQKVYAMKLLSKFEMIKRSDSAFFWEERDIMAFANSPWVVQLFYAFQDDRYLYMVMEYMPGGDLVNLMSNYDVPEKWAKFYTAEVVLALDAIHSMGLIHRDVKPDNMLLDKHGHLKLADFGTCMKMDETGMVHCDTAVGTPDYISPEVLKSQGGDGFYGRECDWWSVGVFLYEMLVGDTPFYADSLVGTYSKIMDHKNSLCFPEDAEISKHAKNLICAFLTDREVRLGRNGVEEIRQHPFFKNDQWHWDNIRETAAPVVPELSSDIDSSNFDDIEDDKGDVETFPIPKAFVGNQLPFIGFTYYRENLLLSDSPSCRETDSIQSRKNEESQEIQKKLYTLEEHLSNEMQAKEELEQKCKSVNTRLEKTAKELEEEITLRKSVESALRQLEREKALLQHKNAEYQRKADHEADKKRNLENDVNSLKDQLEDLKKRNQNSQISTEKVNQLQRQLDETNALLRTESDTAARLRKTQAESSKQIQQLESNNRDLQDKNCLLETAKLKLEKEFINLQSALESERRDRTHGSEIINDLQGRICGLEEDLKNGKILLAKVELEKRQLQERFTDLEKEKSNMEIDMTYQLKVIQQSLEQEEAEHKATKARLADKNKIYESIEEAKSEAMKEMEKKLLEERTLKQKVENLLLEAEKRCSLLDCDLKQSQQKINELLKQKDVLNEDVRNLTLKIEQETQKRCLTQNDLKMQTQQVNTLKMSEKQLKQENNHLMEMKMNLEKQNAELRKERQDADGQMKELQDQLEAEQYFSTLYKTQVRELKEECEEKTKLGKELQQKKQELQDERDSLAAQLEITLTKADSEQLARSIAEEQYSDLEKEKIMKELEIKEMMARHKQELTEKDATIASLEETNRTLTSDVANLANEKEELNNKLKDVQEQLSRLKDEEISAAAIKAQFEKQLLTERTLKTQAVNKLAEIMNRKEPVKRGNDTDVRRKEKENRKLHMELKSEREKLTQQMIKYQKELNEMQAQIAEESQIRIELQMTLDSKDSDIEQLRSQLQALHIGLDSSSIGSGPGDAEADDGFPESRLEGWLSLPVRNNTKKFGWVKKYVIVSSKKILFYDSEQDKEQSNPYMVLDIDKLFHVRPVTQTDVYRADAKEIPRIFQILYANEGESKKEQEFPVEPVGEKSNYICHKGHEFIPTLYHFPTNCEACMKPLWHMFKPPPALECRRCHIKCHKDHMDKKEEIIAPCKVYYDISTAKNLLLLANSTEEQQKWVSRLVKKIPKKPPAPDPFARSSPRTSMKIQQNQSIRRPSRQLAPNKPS
T2 sequence (O75116 1-553): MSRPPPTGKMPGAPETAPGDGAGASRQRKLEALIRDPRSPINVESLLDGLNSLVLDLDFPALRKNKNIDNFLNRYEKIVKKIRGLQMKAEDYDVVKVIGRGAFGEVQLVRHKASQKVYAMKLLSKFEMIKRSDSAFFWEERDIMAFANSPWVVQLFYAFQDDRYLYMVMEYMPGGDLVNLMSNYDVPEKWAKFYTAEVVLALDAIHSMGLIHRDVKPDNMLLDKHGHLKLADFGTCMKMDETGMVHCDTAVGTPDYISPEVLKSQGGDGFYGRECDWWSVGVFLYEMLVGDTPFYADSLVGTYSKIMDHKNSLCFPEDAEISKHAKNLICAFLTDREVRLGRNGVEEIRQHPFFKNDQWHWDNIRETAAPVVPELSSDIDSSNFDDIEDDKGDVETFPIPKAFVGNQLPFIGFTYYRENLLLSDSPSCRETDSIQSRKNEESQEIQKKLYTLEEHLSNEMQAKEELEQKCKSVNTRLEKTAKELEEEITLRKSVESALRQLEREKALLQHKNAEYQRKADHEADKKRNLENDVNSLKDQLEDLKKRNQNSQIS

SMILES	IC50 ([1]; isolated enzyme assay) [µM]	IC50 ([2]; isolated enzyme assay) [µM]	IC50 (ROCK1; class symbols) [µM]	IC50 (ROCK2; class symbols) [µM]	IC50 (ROCK1; numeric bound) [µM]	also measured
CC(C)c1cc(C(=O)Nc2cccc(-c3nsc(Nc4ccc5[nH]ncc5c4Cl)n3)c2)n(C)n1 [IV-63]	< 1	< 1	1 to 15	< 1	–	–
C[C@@H]1CN(c2cccc(-c3nsc(Nc4ccc5[nH]ncc5c4Cl)n3)c2)C(=O)O1 [IV-31]	< 1	< 1	1 to 15	< 1	–	–
O=C(Nc1ccccn1)c1cccc(-c2nsc(Nc3ccc4[nH]ncc4c3Cl)n2)c1 [IV-66]	< 1	< 1	1 to 15	< 1	–	–
CNC(=O)c1cc(-c2nsc(Nc3ccc4[nH]ncc4c3Cl)n2)cn(C)c1=O [IV-2]	< 1	< 1	–	< 1	> 10	–
C[C@H]1CN(c2cccc(-c3nsc(Nc4ccc5[nH]ncc5c4Cl)n3)c2)C(=O)O1 [IV-32]	< 1	< 1	1 to 15	< 1	–	–
Cc1nc(C)c(C(=O)Nc2cccc(-c3nsc(Nc4ccc5[nH]ncc5c4Cl)n3)c2)o1 [IV-61]	< 1	< 1	–	< 1	> 10	–
O=C(CC1CCCO1)Nc1cccc(-c2nsc(Nc3ccc4[nH]ncc4c3Cl)n2)c1 (stereo not shown) [IV-71]	< 1	< 1	1 to 15	< 1	–	–
CC1COCCN1C(=O)Nc1cc(-c2nsc(Nc3ccc4[nH]ncc4c3Cl)n2)ccn1 (stereo not shown) [IV-38]	< 1	< 1	1 to 15	< 1	–	–
Cn1cc(C(=O)Nc2cccc(-c3nsc(Nc4ccc5[nH]ncc5c4Cl)n3)c2)c(C(F)(F)F)n1 [IV-72]	< 1	< 1	1 to 15	< 1	–	–
O=C1OCCN1c1cccc(-c2nsc(Nc3ccc4[nH]ncc4c3Cl)n2)c1 [IV-55]	< 1	< 1	1 to 15	< 1	–	–
CC(C)NC(=O)c1cc(-c2nsc(Nc3ccc4[nH]ncc4c3Cl)n2)ccc1F [IV-14]	< 1	< 1	1 to 15	< 1	–	–
CNC(=O)c1cc(-c2nsc(Nc3ccc4[nH]ncc4c3Cl)n2)ccc1F [IV-49]	< 1	< 1	–	< 1	> 10	–
CN1CCC(NC(=O)c2cc(-c3nsc(Nc4ccc5[nH]ncc5c4Cl)n3)ccc2F)CC1 [IV-46]	< 1	< 1	–	< 1	> 10	–
Cn1nccc1C(=O)Nc1cc(-c2nsc(Nc3ccc4[nH]ncc4c3Cl)n2)cn(C)c1=O [IV-6]	< 1	< 1	–	< 1	> 10	–
Cc1coc(-c2cccc(-c3nsc(Nc4ccc5[nH]ncc5c4F)n3)c2)n1 [IV-15]	< 1	< 1	–	< 1	> 10	–
O=C(Nc1cccc(-c2nsc(Nc3ccc4[nH]ncc4c3Cl)n2)c1)c1cc[nH]n1 [IV-75]	< 1	< 1	–	< 1	> 10	–
O=S(=O)(c1cccc2cnccc12)N1CCCNCC1 [fasudil]	–	–	–	–	–	coronary stenosis [3]: progressively reduce coronary stenosis; infarct size and neurologic deficit [4]: reduce both the infarct size and neurologic deficit
Cn1nccc1C(=O)Nc1cccc(-c2nsc(Nc3ccc4[nH]ncc4c3Cl)n2)c1 [Compound A-3]	–	–	–	–	–	IC50 ([1]; isolated enzyme): < 1 µM; IC50 ([2]; isolated enzyme): < 1 µM; IC50 (ROCK1; [5]): 1 to 15 µM; IC50 (ROCK2; [5]): < 1 µM
Cn1cc(-c2nsc(Nc3ccc4[nH]ncc4c3Cl)n2)cc(NC(=O)c2ccccc2F)c1=O [IV-50]	> 30	< 1	–	< 1	> 10	–
Cc1cc(C(=O)Nc2cncc(-c3nsc(Nc4ccc5[nH]ncc5c4Cl)n3)c2)n(C)n1 [IV-42]	> 30	> 30	–	< 1	> 10	–
O=C1CCCN1c1cccc(-c2nsc(Nc3ccc4[nH]ncc4c3Cl)n2)c1 [IV-83]	< 1	< 1	1 to 15	< 1	–	–
Cc1ccncc1C(=O)Nc1cccc(-c2nsc(Nc3ccc4[nH]ncc4c3Cl)n2)c1 [Compound A-4]	–	–	–	–	–	IC50 ([1]; isolated enzyme): > 30 µM; IC50 ([2]; isolated enzyme): < 1 µM; IC50 (ROCK1; [5]): 1 to 15 µM; IC50 (ROCK2; [5]): < 1 µM
CC(C)N1CCN(c2cc(-c3nsc(Nc4ccc5[nH]ncc5c4Cl)n3)ccn2)C1=O [IV-90]	< 1	< 1	1 to 15	< 1	–	–
Oc1ccn(-c2cccc(-c3nsc(Nc4ccc5[nH]ncc5c4Cl)n3)c2)n1 [IV-17]	< 1	< 1	–	1 to 15	> 10	–
COc1ncc(C(=O)Nc2cc(-c3nsc(Nc4ccc5[nH]ncc5c4Cl)n3)cn(C)c2=O)cn1 [IV-7]	> 30	< 1	–	–	> 10	IC50 (ROCK2; numeric bound): > 10 µM
Cn1nncc1C(=O)Nc1cccc(-c2nsc(Nc3ccc4[nH]ncc4c3Cl)n2)c1 [IV-62]	< 1	< 1	–	< 1	> 10	–
CC1(C)CN(c2cccc(-c3nsc(Nc4ccc5[nH]ncc5c4Cl)n3)c2)C(=O)O1 [IV-54]	< 1	< 1	1 to 15	< 1	–	–
